Reference: US8927577B2, “Quinolinyl glucagon receptor modulators” (Pfizer Inc., priority 2011, dated 2015)
Counter-ions that a name gives are not always drawn.

Experiments:
human glucagon receptor [1] = biological target: T1, human glucagon receptor (Homo sapiens (Human), UniProt P47871); assay: Glucagon cAMP Assay; assay type: cell-based; conditions: CHOK1 cells stably transfected with the human glucagon receptor; 100 pM glucagon challenge; Kb from IC50 by modified Cheng-Prusoff equation
Description: The Cisbio cAMP detection assay is used to determine the ability of punitive glucagon antagonist to block glucagon induced cAMP production. Potential glucagon antagonists are re-suspended and diluted in 100% DMSO. Prior to use in the Glucagon cAMP assay 100×DMSO compound stocks are diluted 20× with DMEM-F12 media (Invitogen) containing either 0.1% or 4% BSA. 2 uls of 5× compound stocks are spotted into the appropriate wells of low binding white solid bottom 384 well plates (Corning). 2 uls of 5% DMSO or known glucagon antagonist are added to each plate to define the assay window. CHOK1 cells stably transfected with the human glucagon receptor are removed from culture flasks with cell dissociation buffer. Cell pellets are re-suspended, at a concentration of 8.3e^5 cells/ml in DMEM-F12 with or without 4% BSA and 200 uM IBMX. 6 uls of cell suspensions are added to the assay plates. Plates are incubated for 20 min at room temperature prior to the addition of a 100 pM challenge dose of glucagon. On a separate plate glucagon dose response curves are run to determine the EC50 of glucagon. After a 30 min room temperature incubation the reaction is terminated by the addition of lysis buffer containing the cAMP detection reagents. Plates are incubated for an additional 60 min at room temperature prior to being read on the Perkin Elmer fluorescent plate reader. Raw is converted to nM of cAMP produced based on a cAMP standard curve. Converted data is then analyzed using the Pfizer data analysis program. IC50 values are determined from the generated sigmoidal dose response curves. Kb values are the calculated using a modified Cheng-Prusoff equation.

human glucagon receptor [2] = biological target: T1, human glucagon receptor; assay: Human Glucagon SPA Assay; conditions: membrane from chem-1 cells stably transfected with the human glucagon receptor; 125 pM [125I]Glucagon-Cex; Ki by Cheng-Prusoff equation; read-out: Binding Ki
Description: The Glucagon SPA assay is used to determine the ability of test compounds to block the binding of glucagon-cex to the glucagon receptor. Test compounds are re-suspended and serially diluted in 100% DMSO. 1 ul of test compound at the desired concentrations is spotted into the appropriate wells of 96 well low binding white clear bottom plate (Corning). 1 ul of DMSO is spotted into total binding wells. 1 ul of a known glucagon antagonist at a concentration of 20 uM is added to non specific binding wells. […] All assay ingredients with the exception of test compounds are re-suspended in the following buffer; 50 mM Hepes pH 7.4; 5 mM MgCl2; 1 mM CaCl; 5% glycerol and 0.2% BSA. Following a 6-10 hr incubation at room temperature the amount of hot ligand bound to the cell membranes is determined by reading the plates on a Wallac Trilux radioactive emission detector. Data is analyzed using Pfizer's Data analysis program. IC50 values are then determined from the generated sigmoidal dose response curves. Ki values are calculated using Cheng-Prusoff equation.

T1 sequence (P47871 26-477): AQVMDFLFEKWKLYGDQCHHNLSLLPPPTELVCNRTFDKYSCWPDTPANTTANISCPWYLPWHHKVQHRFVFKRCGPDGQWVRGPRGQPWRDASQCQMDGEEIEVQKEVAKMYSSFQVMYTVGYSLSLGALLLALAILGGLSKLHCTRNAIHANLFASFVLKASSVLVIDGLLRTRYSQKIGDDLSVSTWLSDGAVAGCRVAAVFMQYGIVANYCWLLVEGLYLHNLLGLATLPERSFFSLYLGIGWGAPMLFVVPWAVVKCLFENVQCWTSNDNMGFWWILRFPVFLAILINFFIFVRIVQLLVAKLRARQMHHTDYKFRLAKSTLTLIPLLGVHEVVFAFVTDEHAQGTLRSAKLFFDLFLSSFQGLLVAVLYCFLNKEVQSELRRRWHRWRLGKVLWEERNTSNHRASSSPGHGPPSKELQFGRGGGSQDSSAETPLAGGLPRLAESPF

SMILES | Kb (human glucagon receptor [1]) | Ki (human glucagon receptor [2])
CC(C)CC(Nc1cc2ccccc2cn1)c1ccc(C(=O)NCCC(=O)O)cc1 (racemic) [Example 9, (+/−)-3-{4-[1-(isoquinolin-3-ylamino)-3-methyl-butyl]-benzoylamino}-propionic acid trifluoroacetate] | 450 nM | 531 nM
CC(C)CC(Nc1ncc2ccc(F)cc2n1)c1ccc(C(=O)NCCC(=O)O)cc1 (racemic) [Example 4, (+/−)-3-{4-[1-(7-fluoro-quinazolin-2-ylamino)-3-methyl-butyl]-benzoylamino}-propionic acid] | 5100 nM | 7360 nM
COc1cccc2ccc(NC(CC(C)C)c3ccc(C(=O)NCCC(=O)O)cc3)nc12 (racemic) [Example 6, (+/−)-3-{4-[1-(8-methoxy-quinolin-2-ylamino)-3-methyl-butyl]-benzoylamino}-propionic acid] | 620 nM | 1860 nM
Cc1nc2ccccc2nc1NC(CC(C)C)c1ccc(C(=O)NCCC(=O)O)cc1 (racemic) [Example 8, (+/−)-3-{4-[3-methyl-1-(3-methyl-quinoxalin-2-ylamino)-butyl]-benzoylamino}-propionic acid] | 1000 nM | 979 nM
CC(C)CC(Nc1ccc2ccc(C(F)(F)F)cc2n1)c1ccc(C(=O)NCCC(=O)O)cc1 (racemic) [Example 15, (+/−)3-(4-(3-methyl-1-(7-(trifluoromethyl)quinolin-2-ylamino)butyl)benzamido)propanoic acid] | 1100 nM | 479 nM
